In patent US20110306597A1, “Nicotinamide Derivatives” (priority 2008, published 2011) one finds IC50 data, which are given here for 44 compounds.

Where only a bound is given, the exact number is not on record here.

By IC50 is commonly meant the point on the concentration scale where inhibition reaches its midpoint.

Chain of human recombinant H-PGDS (O60760 whole entry): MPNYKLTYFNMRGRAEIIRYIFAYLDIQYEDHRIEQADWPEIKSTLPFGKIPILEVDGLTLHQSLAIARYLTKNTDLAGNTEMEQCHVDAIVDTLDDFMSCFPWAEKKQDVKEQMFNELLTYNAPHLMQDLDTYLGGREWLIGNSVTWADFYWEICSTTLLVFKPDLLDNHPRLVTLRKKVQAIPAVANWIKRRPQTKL

The target in the experiment is human recombinant H-PGDS (Homo sapiens, UniProt O60760). The experiment can be described thus: Fluorescence Intensity h-PGDS TBA Enzyme Assay. The note with it: 1:175,000 human recombinant H-PGDS, highest inhibitor concentration typically 1 μM. Type of experiment: biochemical. Summed up:
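Recombinant human H-PGDS preincubated 10 min at room temperature with inhibitor in 100 mM Tris pH 8.0, 100 μM MgCl2, 2.5 mM glutathione, 0.5% DMSO; 5.0 μM PGH2 added, stopped after 42 s with FeCl2/citric acid. Remaining PGH2 measured as MDA–TBA fluorescence (ex 530/em 565 nm); IC50 by 4-parameter fit, 11 concentrations.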
Take `Cc1ccc2c(c1)C(NC(=O)c1ccc(-c3cccc(F)c3)nc1)CC(C)(C)O2` (centres unmarked) [Example 530, 6-(3-Fluorophenyl)-N-(2,2,6-trimethyl-3,4-dihydro-2H-chromen-4-yl)nicotinamide]: the IC50 worked out at 3.03 nM. Consider `COc1ccc(CNC(=O)c2ccc(-c3ccccc3)nc2)cc1OC` [Example 540, N-(3,4-Dimethoxybenzyl)-6-phenylnicotinamide], for which the concentration for half-maximal inhibition (IC50) is 5.41 nM. For `CCCCNC(=O)c1ccc(-c2cccc(F)c2)nc1` [Example 415, N-Butyl-6-(3-fluorophenyl)nicotinamide], the IC50 came out at 24.5 nM. Then `C[C@H](O)CNC(=O)c1ccc(-c2cccc(F)c2)nc1` [Example 129, 6-(3-Fluorophenyl)-N-[(2S)-2-hydroxypropyl]nicotinamide], with 92 nM; and `CCOC(=O)CC(NC(=O)c1ccc(-c2cccc(C)c2)nc1)c1ccc(OC)cc1` (centres unmarked) [Example 255, Ethyl 3-(4-methoxyphenyl)-3-({[6-(3-methylphenyl)pyridin-3-yl]carbonyl}amino)propanoate], with 38.7 nM; and `Cc1cccc(-c2ccc(C(=O)NCC3CCCCO3)cn2)c1` (centres unmarked) [Example 239, 6-(3-Methylphenyl)-N-(tetrahydro-2H-pyran-2-ylmethyl)nicotinamide], with 67.6 nM.

On to `COC(=O)CC(NC(=O)c1ccc(-c2ccc(F)cc2)nc1)c1cccnc1` (centres unmarked) [Example 323, Methyl 3-({[6-(4-fluorophenyl)pyridin-3-yl]carbonyl}amino)-3-pyridin-3-ylpropanoate], for which the IC50 is not below 1000 nM. Then `Cc1ccc2c(c1C)OCCC2NC(=O)c1ccc(-c2cc(F)cc(F)c2)nc1` (centres unmarked) [Example 538, 6-(3,5-Difluorophenyl)-N-(7,8-dimethyl-3,4-dihydro-2H-chromen-4-yl)nicotinamide], with 30.1 nM; and `CCOC(=O)C1(NC(=O)c2ccc(-c3cccc(F)c3)nc2)CCOCC1` [Example 159, Ethyl 4-({[6-(3-fluorophenyl)pyridin-3-yl]carbonyl}amino)tetrahydro-2H-pyran-4-carboxylate], with 391 nM; and `O=C(NCc1cccc(F)c1)c1ccc(-c2ccc(F)cc2)nc1` [Example 465, N-(3-Fluorobenzyl)-6-(4-fluorophenyl)nicotinamide], with 345 nM. Consider `COc1ccc(C(CNC(=O)c2ccc(-c3cccc(F)c3)nc2)N2CCOCC2)cc1` (centres unmarked) [Example 190, 6-(3-Fluorophenyl)-N-[2-(4-methoxyphenyl)-2-morpholin-4-ylethyl]nicotinamide], for which the IC50 was 1330 nM. Take `COc1cccc(-c2ccc(C(=O)NCC3CCN(C(C)=O)CC3)cn2)c1` [Example 273, N-[(1-Acetylpiperidin-4-yl)methyl]-6-(3-methoxyphenyl)nicotinamide]: the IC50 turned out to be 559 nM. With `O=C(NCCN1CCN(Cc2ccccc2)CC1)c1ccc(-c2ccc(F)cc2)nc1` [Example 476, N-[2-(4-Benzylpiperazin-1-yl)ethyl]-6-(4-fluorophenyl)nicotinamide], the concentration for half-maximal inhibition (IC50) is not below 1000 nM. Then `CC(C)c1noc(CNC(=O)c2ccc(-c3cccc(F)c3)nc2)n1` [Example 83, 6-(3-Fluorophenyl)-N-[(3-isopropyl-1,2,4-oxadiazol-5-yl)methyl]nicotinamide], with 72.8 nM; and `O=C(NCc1ccc(Cl)cc1)c1ccc(-c2cccc(F)c2)nc1` [Example 410, N-(4-Chlorobenzyl)-6-(3-fluorophenyl)nicotinamide], with 39.8 nM; and `Cc1cccc(-c2ccc(C(=O)NCc3ccco3)cn2)c1` [Example 246, N-(2-Furylmethyl)-6-(3-methylphenyl)nicotinamide], with 29.2 nM. In the case of `COc1cccc(-c2ccc(C(=O)NCc3ccc(C(F)(F)F)cc3)cn2)c1` [Example 286, 6-(3-Methoxyphenyl)-N-[4-(trifluoromethyl)benzyl] nicotinamide], the IC50 was 536 nM.

In the case of `CC(C)N1CCC(CNC(=O)c2ccc(-c3cccc(F)c3)nc2)C1` (centres unmarked) [Example 12, 6-(3-Fluorophenyl)-N-[(1-isopropylpyrrolidin-3-yl)methyl]nicotinamide], the 50% inhibitory concentration (IC50) is 117 nM. For `Cc1cccc2c1OCCC2NC(=O)c1ccc(-c2cccc(F)c2)nc1` (centres unmarked) [Example 532, 6-(3-Fluorophenyl)-N-(8-methyl-3,4-dihydro-2H-chromen-4-yl)nicotinamide], the IC50 worked out at 3.94 nM. Then `COc1ccc(C(NC(=O)c2ccc(-c3cccc(F)c3)nc2)C2CC2)cc1` (centres unmarked) [Example 202, N-[Cyclopropyl(4-methoxyphenyl)methyl]-6-(3-fluorophenyl)nicotinamide], with 99.9 nM; and `CCC(C)C(CO)NC(=O)c1ccc(-c2cccc(F)c2)nc1` (centres unmarked) [Example 537, 6-(3-Fluorophenyl)-N-[1-(hydroxymethyl)-2-methylbutyl]nicotinamide], with 61.2 nM. Then `O=C(NCCN1CCCCC1CO)c1ccc(-c2cccc(F)c2)nc1` (centres unmarked) [Example 215, 6-(3-Fluorophenyl)-N-{2-[2-(hydroxymethyl)piperidin-1-yl]ethyl}nicotinamide], with 101 nM.

As to `COc1cccc(-c2ccc(C(=O)NCc3ccccc3C)cn2)c1` [Example 333, 6-(3-Methoxyphenyl)-N-(2-methylbenzyl)nicotinamide], the IC50 turned out to be 77.1 nM. As for `O=C(NCCc1nc(CN2CCOCC2)no1)c1ccc(-c2cccc(F)c2)nc1` [Example 35, 6-(3-Fluorophenyl)-N-{2-[3-(morpholin-4-ylmethyl)-1,2,4-oxadiazol-5-yl]ethyl}nicotinamide], the half-maximal inhibitory concentration (IC50) was determined as 50.8 nM. `COc1ccc(C(CNC(=O)c2ccc(-c3cccc(F)c3)nc2)N(C)C)cc1` (centres unmarked) [Example 204, N-[2-(Dimethylamino)-2-(4-methoxyphenyl)ethyl]-6-(3-fluorophenyl)nicotinamide]: the IC50 was found to be 125 nM. Consider `COC(=O)c1ccc(CNC(=O)c2ccc(-c3cccc(F)c3)nc2)cc1` [Example 416, Methyl 4-[({[6-(3-fluorophenyl)pyridin-3-yl]carbonyl}amino)methyl] benzoate], for which the half-inhibitory concentration (IC50) is 44.8 nM.

For the compound `CC(C)(C)OCCNC(=O)c1ccc(-c2cccc(F)c2)nc1` [Example 134, N-(2-tert-Butoxyethyl)-6-(3-fluorophenyl)nicotinamide], the half-inhibitory concentration (IC50) was 47.7 nM. Consider `Cc1cccc(-c2ccc(C(=O)NCCc3cccs3)cn2)c1` [Example 321, 6-(3-Methylphenyl)-N-[2-(2-thienyl)ethyl]nicotinamide], for which the 50% inhibitory concentration (IC50) was found to be 84.5 nM. With `CN(C)CC(C)(C)CNC(=O)c1ccc(-c2ccccc2)nc1` [Example 352, N-[3-(Dimethylamino)-2,2-dimethylpropyl]-6-phenylnicotinamide], the 50% inhibitory concentration (IC50) is 458 nM.

Take `CCOC(=O)C1(NC(=O)c2ccc(-c3ccc(F)cc3)nc2)CCOCC1` [Example 495, Ethyl 4-({[6-(4-fluorophenyl)pyridin-3-yl]carbonyl}amino)tetrahydro-2H-pyran-4-carboxylate]: the 50% inhibitory concentration (IC50) was not below 1000 nM. `COC(=O)[C@H](C)NC(=O)c1ccc(-c2ccccc2)nc1` [Example 349, Methyl N-[(6-phenylpyridin-3-yl)carbonyl]alaninate]: the IC50 is 47 nM. `COc1cccc(-c2ccc(C(=O)NCc3ccccc3)cn2)c1` [Example 341, N-Benzyl-6-(3-methoxyphenyl)nicotinamide]: the 50% inhibitory concentration (IC50) stood at 131 nM.

Take `CCOC(=O)C(CNC(=O)c1ccc(-c2ccccc2)nc1)c1c(F)cccc1F` (centres unmarked) [Example 355, Ethyl 2-(2,6-difluorophenyl)-3-{[(6-phenylpyridin-3-yl)carbonyl]amino}propanoate]: the IC50 was 138 nM. Turning to `CCOC(=O)CC(NC(=O)c1ccc(-c2cccc(F)c2)nc1)c1ccccc1Cl` (centres unmarked) [Example 411, Ethyl 3-(2-chlorophenyl)-3-({[6-(3-fluorophenyl)pyridin-3-yl]carbonyl}amino)propanoate], the IC50 came to 127 nM. `CNS(=O)(=O)c1ccc(CNC(=O)c2ccc(-c3ccccc3)nc2)cc1` [Example 397, N-{4-[(Methylamino)sulfonyl]benzyl}-6-phenylnicotinamide]: the concentration for half-maximal inhibition (IC50) amounted to 18.8 nM. As to `CC(C)CNC(=O)c1ccc(-c2ccc(F)cc2)nc1` [Example 463, 6-(4-Fluorophenyl)-N-isobutylnicotinamide], the IC50 came out at 653 nM. For the compound `O=C(NCCN1CCOCC1)c1ccc(-c2ccccc2)nc1` [Example 389, N-(2-Morpholin-4-ylethyl)-6-phenylnicotinamide], the half-maximal inhibitory concentration (IC50) was found to be 23.9 nM. In the case of `CNS(=O)(=O)c1ccc(CNC(=O)c2ccc(-c3cc(F)cc(F)c3)nc2)cc1` [Example 571, 6-(3,5-Difluorophenyl)-N-{4-[(methylamino)sulfonyl]benzyl}nicotinamide], the IC50 came out at 62.1 nM.

`Cc1ccc(CNC(=O)c2ccc(-c3ccc(F)cc3)nc2)cc1` [Example 480, 6-(4-Fluorophenyl)-N-(4-methylbenzyl)nicotinamide]: the IC50 came to 327 nM. Then `O=C(NCc1coc(-c2ccc(F)cc2)n1)c1ccc(-c2cccc(F)c2)nc1` [Example 535, 6-(3-Fluorophenyl)-N-{[2-(4-fluorophenyl)-1,3-oxazol-4-yl]methyl}nicotinamide], with 5.56 nM. In the case of `O=C(NCCC1CCC(=O)N1CCN1CCNC1=O)c1ccc(-c2ccccc2)nc1` (centres unmarked) [Example 360, N-(2-{5-Oxo-1-[2-(2-oxoimidazolidin-1-yl)ethyl]pyrrolidin-2-yl}ethyl)-6-phenylnicotinamide], the IC50 was 10.3 nM. Next, `O=C(NC(c1cccc(Cl)c1)c1nn[nH]n1)c1ccc(-c2cccc(F)c2)nc1` (centres unmarked) [Example 123, N-[(3-Chlorophenyl)(2H-tetrazol-5-yl)methyl]-6-(3-fluorophenyl)nicotinamide]: 15.6 nM. Consider `Cc1cccc(-c2ccc(C(=O)NCCC3CCCCO3)cn2)c1` (centres unmarked) [Example 320, 6-(3-Methylphenyl)-N-[2-(tetrahydro-2H-pyran-2-yl)ethyl]nicotinamide], for which the IC50 was 17.4 nM. Take `CCCCNC(=O)c1ccc(-c2cccc(OC)c2)nc1` [Example 289, N-Butyl-6-(3-methoxyphenyl)nicotinamide]: the IC50 was 466 nM.
